Measurements from PubChem BioAssay AID1963867 (Molecular Pharmacology Branch, DTP, NCI, 2024).

Test system: KRAS-mutant PDC tumor spheroid with HUVEC/MSC, viability
Test: Anticancer human tumor 327498-153-R-J2-PDC patient-derived uterine carcinosarcoma cell line growth inhibition [KRAS2]
Details: for viability, T/C: stronger effect = lower value
Procedure, shortened: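 KRAS-mutant tumor cells were grown as spheroids with HUVEC endothelial cells and human MSCs as stroma. Targeted agents were tested alone and with KRAS pathway inhibitors. Doses started at or near clinical Cmax, or 10 microM, descending half-log.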

[1] = curve of first compound, second compound 0.1 µM
[2] = curve of first compound, second compound 0.316 µM
[3] = curve of first compound, second compound 1 µM
[4] = curve of first compound, second compound 3.16 µM
[5] = curve of first compound, second compound 10 µM
[6] = second compound 0.1 µM, first compound 0.000316 µM
[7] = second compound 0.1 µM, first compound 0.001 µM
[8] = second compound 0.1 µM, first compound 0.00316 µM
[9] = second compound 0.1 µM, first compound 0.01 µM
[10] = second compound 0.1 µM, first compound 0.0316 µM
[11] = second compound 0.316 µM, first compound 0.000316 µM
[12] = second compound 0.316 µM, first compound 0.001 µM
[13] = second compound 0.316 µM, first compound 0.00316 µM
[14] = second compound 0.316 µM, first compound 0.01 µM
[15] = second compound 0.316 µM, first compound 0.0316 µM
[16] = second compound 1 µM, first compound 0.000316 µM
[17] = second compound 1 µM, first compound 0.001 µM
[18] = second compound 1 µM, first compound 0.00316 µM
[19] = second compound 1 µM, first compound 0.01 µM
[20] = second compound 1 µM, first compound 0.0316 µM
[21] = second compound 3.16 µM, first compound 0.000316 µM
[22] = second compound 3.16 µM, first compound 0.001 µM
[23] = second compound 3.16 µM, first compound 0.00316 µM
[24] = second compound 3.16 µM, first compound 0.01 µM
[25] = second compound 3.16 µM, first compound 0.0316 µM
[26] = second compound 10 µM, first compound 0.000316 µM
[27] = second compound 10 µM, first compound 0.001 µM
[28] = second compound 10 µM, first compound 0.00316 µM
[29] = second compound 10 µM, first compound 0.01 µM
[30] = second compound 10 µM, first compound 0.0316 µM
[31] = second compound 0.1 µM, first compound 0.1 µM
[32] = second compound 0.1 µM, first compound 0.316 µM
[33] = second compound 0.1 µM, first compound 1 µM
[34] = second compound 0.1 µM, first compound 3.16 µM
[35] = second compound 0.316 µM, first compound 0.1 µM
[36] = second compound 0.316 µM, first compound 0.316 µM
[37] = second compound 0.316 µM, first compound 1 µM
[38] = second compound 0.316 µM, first compound 3.16 µM
[39] = second compound 1 µM, first compound 0.1 µM
[40] = second compound 1 µM, first compound 0.316 µM
[41] = second compound 1 µM, first compound 1 µM
[42] = second compound 1 µM, first compound 3.16 µM
[43] = second compound 3.16 µM, first compound 0.1 µM
[44] = second compound 3.16 µM, first compound 0.316 µM
[45] = second compound 3.16 µM, first compound 1 µM
[46] = second compound 3.16 µM, first compound 3.16 µM
[47] = second compound 10 µM, first compound 0.1 µM
[48] = second compound 10 µM, first compound 0.316 µM
[49] = second compound 10 µM, first compound 1 µM
[50] = second compound 10 µM, first compound 3.16 µM
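Note: spheroids exposed to agents for seven days before reading.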
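Throughout, for viability, T/C: 100% = DMSO vehicle wells so lower means fewer viable cells.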

## CC(=O)Nc1cccc(-n2c(=O)n(C3CC3)c(=O)c3c(Nc4ccc(I)cc4F)n(C)c(=O)c(C)c32)c1 + COc1cc2nc(C)nc(NC(C)c3cc(N)cc(C(F)(F)F)c3)c2cc1OC1CCOC1
[1]
  IC50: 3.71 nM
[2]
  IC50: 2.62 nM
[3]
  IC50: 2.12 nM
[4]
  IC50: 1.05 nM
[5]
  IC50: < 0.1 nM
Second compound 0.1 µM, first compound 0.0001 µM
  viability, T/C: 67.4%
[6]
  viability, T/C: 68.6%
[7]
  viability, T/C: 55.7%
[8]
  viability, T/C: 48.5%
[9]
  viability, T/C: 46.1%
[10]
  viability, T/C: 25.5%
Second compound 0.316 µM, first compound 0.0001 µM
  viability, T/C: 74.9%
[11]
  viability, T/C: 63.1%
[12]
  viability, T/C: 54.5%
[13]
  viability, T/C: 50.9%
[14]
  viability, T/C: 43.2%
[15]
  viability, T/C: 26.8%
Second compound 1 µM, first compound 0.0001 µM
  viability, T/C: 64.6%
[16]
  viability, T/C: 67.3%
[17]
  viability, T/C: 52.3%
[18]
  viability, T/C: 44.3%
[19]
  viability, T/C: 40.8%
[20]
  viability, T/C: 22.9%
Second compound 3.16 µM, first compound 0.0001 µM
  viability, T/C: 56.5%
[21]
  viability, T/C: 52.6%
[22]
  viability, T/C: 47.9%
[23]
  viability, T/C: 44.1%
[24]
  viability, T/C: 40%
[25]
  viability, T/C: 22.4%
Second compound 10 µM, first compound 0.0001 µM
  viability, T/C: 48.1%
[26]
  viability, T/C: 37.7%
[27]
  viability, T/C: 38.4%
[28]
  viability, T/C: 29.8%
[29]
  viability, T/C: 31.1%
[30]
  viability, T/C: 18.3%

## CC1COCCN1c1cc(-c2ccnn2C)c2ccnc(-c3ccn[nH]3)c2n1 (configuration not stated) + COc1cc2nc(C)nc(NC(C)c3cc(N)cc(C(F)(F)F)c3)c2cc1OC1CCOC1
[1]
  IC50: 13 nM
[2]
  IC50: 20.7 nM
[3]
  IC50: 15.4 nM
[4]
  IC50: 13.2 nM
[5]
  IC50: < 10 nM
[9]
  viability, T/C: 63.9%
[10]
  viability, T/C: 3.7%
[31]
  viability, T/C: 2.44%
[32]
  viability, T/C: 3.52%
[33]
  viability, T/C: 4.74%
[34]
  viability, T/C: 4.39%
[14]
  viability, T/C: 81.8%
[15]
  viability, T/C: 31.4%
[35]
  viability, T/C: 9.52%
[36]
  viability, T/C: 6.32%
[37]
  viability, T/C: 5.51%
[38]
  viability, T/C: 5.8%
[19]
  viability, T/C: 62.1%
[20]
  viability, T/C: 30.1%
[39]
  viability, T/C: 10.6%
[40]
  viability, T/C: 5.67%
[41]
  viability, T/C: 7.04%
[42]
  viability, T/C: 4.67%
[24]
  viability, T/C: 57.9%
[25]
  viability, T/C: 25.2%
[43]
  viability, T/C: 6.64%
[44]
  viability, T/C: 3.75%
[45]
  viability, T/C: 3.28%
[46]
  viability, T/C: 3.79%
[29]
  viability, T/C: 46.3%
[30]
  viability, T/C: 15.9%
[47]
  viability, T/C: 1.79%
[48]
  viability, T/C: 2.06%
[49]
  viability, T/C: 1.48%
[50]
  viability, T/C: 0.91%

## Cn1ncnc1[C@H]1c2n[nH]c(=O)c3cc(F)cc(c23)N[C@@H]1c1ccc(F)cc1 + C=CC(=O)N1CCN(c2nc(=O)n(-c3c(C)ccnc3C(C)C)c3nc(-c4c(O)cccc4F)c(F)cc23)C(C)C1
[1]
  IC50: 3.87 nM
[2]
  IC50: 3.46 nM
[3]
  IC50: 1.97 nM
[4]
  IC50: 1.74 nM
[5]
  IC50: < 0.316 nM
[6]
  viability, T/C: 63.7%
[7]
  viability, T/C: 58.6%
[8]
  viability, T/C: 54%
[9]
  viability, T/C: 36.1%
[10]
  viability, T/C: 22.2%
[31]
  viability, T/C: 15.6%
[11]
  viability, T/C: 54.8%
[12]
  viability, T/C: 60.3%
[13]
  viability, T/C: 49.1%
[14]
  viability, T/C: 36.9%
[15]
  viability, T/C: 19.8%
[35]
  viability, T/C: 15.4%
[16]
  viability, T/C: 59%
[17]
  viability, T/C: 59.5%
[18]
  viability, T/C: 42.7%
[19]
  viability, T/C: 34.1%
[20]
  viability, T/C: 21%
[39]
  viability, T/C: 15.9%
[21]
  viability, T/C: 55.9%
[22]
  viability, T/C: 53%
[23]
  viability, T/C: 47%
[24]
  viability, T/C: 32.4%
[25]
  viability, T/C: 21.7%
[43]
  viability, T/C: 14.8%
[26]
  viability, T/C: 39.9%
[27]
  viability, T/C: 45.1%
[28]
  viability, T/C: 34.1%
[29]
  viability, T/C: 20.5%
[30]
  viability, T/C: 16.9%
[47]
  viability, T/C: 13.4%

## CN(C)C/C=C/C(=O)Nc1cc2c(Nc3ccc(F)c(Cl)c3)ncnc2cc1O[C@H]1CCOC1
Compound 0.000316 µM
  viability, T/C: 99.1% [middle of 5 runs]
Compound 0.001 µM
  viability, T/C: 97% [middle of 5 runs]
Compound 0.00316 µM
  viability, T/C: 95.1% [middle of 5 runs]
Compound 0.01 µM
  viability, T/C: 104% [middle of 5 runs]
Compound 0.0316 µM
  viability, T/C: 100% [middle of 5 runs]
Compound 0.1 µM
  viability, T/C: 90.8% [middle of 5 runs]
Curve of compound
  IC50: > 100 nM

## CC1OCC2(CCN(c3cnc(Sc4ccnc(N)c4Cl)c(N)n3)CC2)C1N (configuration not stated) + CNCc1ccccc1-c1csc(C(C)Nc2nc(C)nc3cc(OC)c(OC)cc23)c1
[1]
  IC50: 136 nM
[2]
  IC50: 109 nM
[3]
  IC50: 100 nM
[4]
  IC50: < 31.6 nM
[5]
  IC50: < 31.6 nM
[10]
  viability, T/C: 75.4%
[31]
  viability, T/C: 52.6%
[32]
  viability, T/C: 41.2%
[33]
  viability, T/C: 34.2%
[34]
  viability, T/C: 30.9%
Second compound 0.1 µM, first compound 10 µM
  viability, T/C: 27.7%
[15]
  viability, T/C: 61.4%
[35]
  viability, T/C: 51.8%
[36]
  viability, T/C: 36%
[37]
  viability, T/C: 31%
[38]
  viability, T/C: 28%
Second compound 0.316 µM, first compound 10 µM
  viability, T/C: 24.6%
[20]
  viability, T/C: 65.7%
[39]
  viability, T/C: 50.1%
[40]
  viability, T/C: 39.9%
[41]
  viability, T/C: 31.9%
[42]
  viability, T/C: 31.7%
Second compound 1 µM, first compound 10 µM
  viability, T/C: 27.5%
[25]
  viability, T/C: 0.11%
[43]
  viability, T/C: 0.09%
[44]
  viability, T/C: 0.08%
[45]
  viability, T/C: 0.06%
[46]
  viability, T/C: 0.06%
Second compound 3.16 µM, first compound 10 µM
  viability, T/C: 0.17%
[30]
  viability, T/C: 0.13%
[47]
  viability, T/C: 0.18%
[48]
  viability, T/C: 0.13%
[49]
  viability, T/C: 0.43%
[50]
  viability, T/C: 0.13%
Second compound 10 µM, first compound 10 µM
  viability, T/C: 0.22%
